Reference: patent US20160115446A1, “Technologies, Methods, and Products of Small Molecule Directed Tissue and Organ Regeneration from Human Pluripotent Stem Cells” (SAN DIEGO REGENERATIVE MEDICINE INSTITUTE, priority 2014, published 2016)

Test system: undifferentiated hESCs
Experiment: Cardiac induction of undifferentiated hESCs in defined culture by NAM (marker immunostaining, beating cardiomyocytes)
Assay type: cell-based, human
Excerpt: (b) Cardiac fate switch direct of the pluripotent state of hESCs induced by nicotinamide. NAM-induced Oct-4-negative cells began to express the cardiac specific transcription factor (Csx) Nkx2.5 (green) and alpha-actinin (red), consistent with early cardiac differentiation. […] All cells are indicated by DAPI staining of their nuclei (blue). Insets at the top better visualize individual cells at higher-magnification.
(Stage 1—Human Cardiomesodermal Cells) (FIGS. 1; 2a, b). Increased intensity of Nkx2.5 was usually observed in areas of the colonies where cells began to pile up (FIG. 2b). These differentiating hESCs then formed cardioblasts that uniformly expressed Nkx2.5 in suspension (Stage 2—Human Cardiac Precursor Cells) (FIGS. 1; 3a). […] (FIGS. 1, 3b). Cells within the beating cardiospheres expressed markers characteristic of cardiomyocytes (FIG. 3b). The cardiomyocytes can retain their strong contractility for over 3 months. Electrical profiles of the cardiomyocytes confirmed their contractions to be strong rhythmic impulses reminiscent of the p-QRS-T-complexes seen from body surface electrodes in clinical electrocardiograms (FIG. 3c). Cardiac specific transcription factor (Csx) Nkx2.5 is an evolutionally conserved homeobox transcription factor indispensable for normal cardiac development. The onset and pattern of early Nkx2.5 expression roughly coincide with the timing and area of cardiac specification, and Nkx2.5 gene continues to be expressed through development in the heart. Expression of Nkx2.5 is the earliest marker for heart precursor cells in all vertebrates so far examined and is essential for proper cardiac septation and formation/maturation of electrical conduction system.

## NC(=O)c1cccnc1 [NAM, nicotinamide]
NAM 10 mM, defined culture
  expression of cardiac-specific transcription factor Csx/Nkx2.5: began expressing the earliest marker for heart precursor, Csx/Nkx2.5
NAM 10 mM, defined culture, all the cells within the colony
  expression of pluripotence-associated markers (e.g., Oct-4): down-regulated the expression of pluripotence-associated markers
Cardioblasts attached, further NAM treatment, after withdrawal of NAM, vs untreated control
  appearance of beating cardiomyocytes: drastic increase in efficiency
